Laboratory results taken from US20060069132A1, “Azolecarboxamide herbicides” (priority 2004, published 2006).

What was measured:
[1] = tested on: barnyardgrass; assay: Test A pre-/postemergence herbicide test; format: in vivo, Echinochloa crus-galli
In short: (§1)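 Pre: seeded sandy loam, directed soil spray, compound in non-phytotoxic solvent + surfactant. Post: 1–2-leaf plants (2–10 cm), sprayed to runoff. Greenhouse ~10 d; visual injury vs untreated, 0–100 scale.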

[2] = tested on: large crabgrass; assay: Test A pre-/postemergence herbicide test; format: in vivo, Digitaria sanguinalis
In short: as §1

[3] = tested on: giant foxtail; assay: Test A pre-/postemergence herbicide test; format: in vivo, Setaria faberi
In short: as §1

[4] = tested on: morningglory; assay: Test A pre-/postemergence herbicide test; format: in vivo, Ipomoea spp.
In short: as §1

[5] = tested on: redroot pigweed; assay: Test A pre-/postemergence herbicide test; format: in vivo, Amaranthus retroflexus
In short: as §1

[6] = tested on: velvetleaf; assay: Test A pre-/postemergence herbicide test; format: in vivo, Abutilon theophrasti
In short: as §1

[7] = tested on: barnyardgrass; assay: Test B pre-/postemergence herbicide test; format: in vivo, Echinochloa crus-galli; conditions: for Barnyardgrass plant response rating: postemergence
In short: (§2)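 Test chemicals in a non-phytotoxic solvent mixture with surfactant were applied preemergence to seeded species and postemergence to plants 2-18 cm tall (1- to 4-leaf stage); rice and barnyardgrass were also tested in a flooded paddy at the 2-leaf stage. Visual rating versus controls after 13-15 days in greenhouse, scale 0 (no effect) to 100 (complete control).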

[8] = tested on: Surinam grass; assay: Test B pre-/postemergence herbicide test; format: in vivo, Urochloa decumbens; conditions: for Surinam Grass plant response rating: postemergence
In short: (§3)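 Herbicidal effect was judged by eye on a 0–100 scale after plants stood 13 to 15 days in the greenhouse following pre- or postemergence treatment with surfactant-containing formulations.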

[9] = tested on: cocklebur; assay: Test B pre-/postemergence herbicide test; format: in vivo, Xanthium strumarium; conditions: for Cocklebur plant response rating: postemergence
In short: as §2

[10] = tested on: corn; assay: Test B pre-/postemergence herbicide test; format: in vivo, Zea mays; conditions: for Corn plant response rating: postemergence
In short: as §3

[11] = tested on: large crabgrass; assay: Test B pre-/postemergence herbicide test; format: in vivo, Digitaria sanguinalis; conditions: for Crabgrass, Large plant response rating: postemergence
In short: as §3

[12] = tested on: giant foxtail; assay: Test B pre-/postemergence herbicide test; format: in vivo, Setaria faberi; conditions: for Foxtail, Giant plant response rating: postemergence
In short: as §3

[13] = tested on: lambsquarters; assay: Test B pre-/postemergence herbicide test; format: in vivo, Chenopodium album; conditions: for Lambsquarters plant response rating: postemergence
In short: as §3

[14] = tested on: morningglory; assay: Test B pre-/postemergence herbicide test; format: in vivo, Ipomoea coccinea; conditions: for Morningglory plant response rating: postemergence
In short: as §2

[15] = tested on: pigweed; assay: Test B pre-/postemergence herbicide test; format: in vivo, Amaranthus retroflexus; conditions: for Pigweed plant response rating: postemergence
In short: as §3

[16] = tested on: rice; assay: Test B pre-/postemergence herbicide test; format: in vivo, Oryza sativa; conditions: 0 = no effect, 100 = complete control, preemergence
In short: as §3

[17] = tested on: velvetleaf; assay: Test B pre-/postemergence herbicide test; format: in vivo, Abutilon theophrasti; conditions: for Velvetleaf plant response rating: postemergence
In short: as §3

[18] = tested on: blackgrass; assay: Test B postemergence herbicide test; format: in vivo, Alopecurus myosuroides; conditions: postemergence
In short: (§4)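 Paddy species grown to the 2-leaf stage under flooding; blackgrass sprayed postemergence at 2–18 cm (1- to 4-leaf stage). Plants kept in a greenhouse for 13 to 15 days, then visually rated against controls on 0 (no effect) to 100 (complete control).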

[19] = tested on: wheat; assay: Test B postemergence herbicide test; format: in vivo, Triticum aestivum; design: key to Wheat plant response rating: 0 = no effect, 100 = complete control; conditions: postemergence
In short: (§5)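 Greenhouse test; postemergence application to plants at 1–4 leaves (2–18 cm); paddy species at 2 leaves; evaluated visually vs controls at 13–15 days; scale 0–100 (100 = complete control).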

[20] = tested on: wild oat; assay: Test B postemergence herbicide test; format: in vivo, Avena fatua; conditions: postemergence
In short: as §5

[21] = tested on: rice; assay: Test B flooded paddy test; format: in vivo, Oryza sativa; conditions: 1000 g ai/ha, scale 0 to 100 (0 no effect, 100 complete control)
In short: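 Treated at 2-leaf (paddy) or 1–4-leaf, 2–18 cm (postemergence); greenhouse 13–15 d; visual score vs control, 0 none to 100 complete control; dash = not tested.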

[22] = tested on: small flower umbrella sedge; assay: Test B flooded paddy test; format: in vivo, Cyperus difformis; conditions: 1000 g ai/ha, scale 0 to 100 (0 no effect, 100 complete control)
In short: as §4

[23] = tested on: ducksalad; assay: Test B flooded paddy test; format: in vivo, Heteranthera limosa; conditions: 1000 g ai/ha, scale 0 to 100 (0 no effect, 100 complete control)
In short: as §4

[24] = tested on: barnyardgrass; assay: Test B flooded paddy test; format: in vivo, Echinochloa crus-galli; conditions: 1000 g ai/ha, scale 0 to 100 (0 no effect, 100 complete control)
In short: as §4

[25] = Postemergence, 500 g ai/ha, 0 to 100 scale, 0 no effect, 100 complete control
[26] = Postemergence, 2000 g ai/ha, 0 to 100 scale, 0 no effect, 100 complete control
[27] = Preemergence, 2000 g ai/ha, visual rating, 0 to 100 scale (0 no effect, 100 complete control)
[28] = preemergence, 500 g ai/ha, visual injury, 0 to 100 scale (0 no effect, 100 complete control)
[29] = 125 g ai/ha, 0 = no effect, 100 = complete control, preemergence
[30] = 500 g ai/ha, visual rating, 0 = no effect, 100 = complete control, preemergence
[31] = 125 g ai/ha, visual rating, scale 0 (no effect) to 100 (complete control)
[32] = 500 g ai/ha, scale 0 to 100, 0 is no effect, 100 is complete control

CCN(C)C(=O)c1ccc(F)c(NC(=O)c2cc(C(C)(C)C)nn2CC)n1 [Compound 280]
90: Pigweed plant response rating [5, 27]
30: Plant response rating, Velvetleaf [6, 26] | Velvetleaf plant response rating [6, 27] | Cocklebur plant response rating [9, 32] | Wheat plant response rating [19, 32] | Sedge, Umbrella plant response rating [22]
5: Crabgrass, Large plant response rating [2, 25] | Foxtail, Giant plant response rating [3, 28]
55: Pigweed plant response rating [5, 25]
45: Barnyardgrass plant response rating [1, 27] | Foxtail, Giant plant response rating [3, 27]
10: Plant response rating, Morningglory [4, 26] | Plant response rating, Barnyardgrass [7, 30] | Plant response rating, Surinam Grass [8, 30] | Surinam Grass plant response rating [8, 32] | Corn plant response rating [10, 32] | Plant response rating, Crabgrass, Large [11, 30] | Plant response rating, Foxtail, Giant [12, 30] | Lambsquarters plant response rating [13, 31] | Morningglory plant response rating [14, 32] | Pigweed plant response rating [15, 31] | Plant response rating, Rice ([16]; 500 g ai/ha, visual rating) | Velvetleaf plant response rating (0 to 100 scale) [17, 29] | Velvetleaf plant response rating [17, 31] | Oat, Wild plant response rating [20, 31]
25: Plant response rating, Barnyardgrass [1, 26] | Crabgrass, Large plant response rating [2, 27]
80: Plant response rating, Lambsquarters [13, 30]
0: Barnyardgrass plant response rating [1, 25] | Barnyardgrass plant response rating [1, 28] | Plant response rating, Crabgrass, Large [2, 26] | Crabgrass, Large plant response rating [2, 28] | Foxtail, Giant plant response rating [3, 25] | Plant response rating, Foxtail, Giant [3, 26] | Morningglory plant response rating [4, 25] | Morningglory plant response rating [4, 28] | Velvetleaf plant response rating [6, 28] | Barnyardgrass plant response rating (0 to 100 scale) [7, 29] | Barnyardgrass plant response rating [7, 31] | Barnyardgrass plant response rating [7, 32] | Surinam Grass plant response rating (0 to 100 scale) [8, 29] | Surinam Grass plant response rating [8, 31] | Cocklebur plant response rating (0 to 100 scale) [9, 29] | Plant response rating, Cocklebur [9, 30] | Cocklebur plant response rating [9, 31] | Corn plant response rating (0 to 100 scale) [10, 29] | Plant response rating, Corn [10, 30] | Corn plant response rating [10, 31] | Crabgrass, Large plant response rating (0 to 100 scale) [11, 29] | Crabgrass, Large plant response rating [11, 31] | Crabgrass, Large plant response rating [11, 32] | Foxtail, Giant plant response rating (0 to 100 scale) [12, 29] | Foxtail, Giant plant response rating [12, 31] | Foxtail, Giant plant response rating [12, 32] | Morningglory plant response rating (0 to 100 scale) [14, 29] | Plant response rating, Morningglory [14, 30] | Morningglory plant response rating [14, 31] | Rice plant response rating (0 to 100 scale) ([16]; 125 g ai/ha) | Rice plant response rating [21] | Barnyardgrass plant response rating [24]
70: Plant response rating, Pigweed [5, 26] | Pigweed plant response rating (0 to 100 scale) [15, 29]
20: Velvetleaf plant response rating [6, 25] | Lambsquarters plant response rating [13, 32] | Pigweed plant response rating [15, 32] | Plant response rating, Velvetleaf [17, 30] | Velvetleaf plant response rating [17, 32] | Blackgrass plant response rating [18, 31] | Blackgrass plant response rating [18, 32] | Wheat plant response rating [19, 31] | Oat, Wild plant response rating [20, 32] | Ducksalad plant response rating [23]
15: Morningglory plant response rating [4, 27] | Pigweed plant response rating [5, 28]
100: Plant response rating, Pigweed [15, 30]
